What was measured:
Experiment in all cases: biochemical
Format in all cases: binding
panel of 442 kinases [1] = target: T1, panel of 442 kinases (Homo sapiens, UniProt O75385); conditions: kinase ULK1; for remaining activity at 1 µM: read-out: ULK1 (% of control at 1 µM)
T1 construct: purchased Ambit Biosciences (scanMAXX KINOMEscan)
T1 sequence (O75385 1-1050): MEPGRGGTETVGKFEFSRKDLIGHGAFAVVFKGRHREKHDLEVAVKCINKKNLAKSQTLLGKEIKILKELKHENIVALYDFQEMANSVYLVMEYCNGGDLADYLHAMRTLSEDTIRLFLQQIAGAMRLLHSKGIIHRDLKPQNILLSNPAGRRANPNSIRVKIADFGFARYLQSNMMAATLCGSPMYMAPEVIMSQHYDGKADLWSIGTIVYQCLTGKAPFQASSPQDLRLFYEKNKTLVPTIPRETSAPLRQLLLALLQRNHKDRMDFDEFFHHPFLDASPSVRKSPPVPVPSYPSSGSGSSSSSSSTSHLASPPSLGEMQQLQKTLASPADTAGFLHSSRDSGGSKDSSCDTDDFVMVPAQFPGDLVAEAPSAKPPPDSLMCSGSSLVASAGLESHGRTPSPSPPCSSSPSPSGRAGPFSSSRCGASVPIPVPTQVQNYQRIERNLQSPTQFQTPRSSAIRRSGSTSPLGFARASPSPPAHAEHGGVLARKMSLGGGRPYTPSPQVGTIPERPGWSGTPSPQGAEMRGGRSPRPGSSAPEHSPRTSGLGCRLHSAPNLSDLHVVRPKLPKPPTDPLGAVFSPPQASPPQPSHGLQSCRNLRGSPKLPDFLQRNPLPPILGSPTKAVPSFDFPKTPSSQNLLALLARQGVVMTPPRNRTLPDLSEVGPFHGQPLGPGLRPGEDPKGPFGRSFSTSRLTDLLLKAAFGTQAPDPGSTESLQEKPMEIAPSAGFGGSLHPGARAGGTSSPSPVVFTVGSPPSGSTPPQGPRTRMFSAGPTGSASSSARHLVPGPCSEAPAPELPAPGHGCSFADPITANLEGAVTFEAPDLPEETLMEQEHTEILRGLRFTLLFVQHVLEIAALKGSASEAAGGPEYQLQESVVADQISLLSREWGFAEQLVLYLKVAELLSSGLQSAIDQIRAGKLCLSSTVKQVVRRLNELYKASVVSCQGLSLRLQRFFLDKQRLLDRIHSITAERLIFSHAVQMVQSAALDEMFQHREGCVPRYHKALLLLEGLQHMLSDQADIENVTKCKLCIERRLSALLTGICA

panel of 442 kinases [2] = target: T2, panel of 442 kinases (Homo sapiens, UniProt Q13873); conditions: BMPR2; for remaining activity at 1 µM: read-out: % of control at 1 µM
T2 construct: purchased Ambit Biosciences (scanMAXX KINOMEscan)
T2 sequence (Q13873 27-1038): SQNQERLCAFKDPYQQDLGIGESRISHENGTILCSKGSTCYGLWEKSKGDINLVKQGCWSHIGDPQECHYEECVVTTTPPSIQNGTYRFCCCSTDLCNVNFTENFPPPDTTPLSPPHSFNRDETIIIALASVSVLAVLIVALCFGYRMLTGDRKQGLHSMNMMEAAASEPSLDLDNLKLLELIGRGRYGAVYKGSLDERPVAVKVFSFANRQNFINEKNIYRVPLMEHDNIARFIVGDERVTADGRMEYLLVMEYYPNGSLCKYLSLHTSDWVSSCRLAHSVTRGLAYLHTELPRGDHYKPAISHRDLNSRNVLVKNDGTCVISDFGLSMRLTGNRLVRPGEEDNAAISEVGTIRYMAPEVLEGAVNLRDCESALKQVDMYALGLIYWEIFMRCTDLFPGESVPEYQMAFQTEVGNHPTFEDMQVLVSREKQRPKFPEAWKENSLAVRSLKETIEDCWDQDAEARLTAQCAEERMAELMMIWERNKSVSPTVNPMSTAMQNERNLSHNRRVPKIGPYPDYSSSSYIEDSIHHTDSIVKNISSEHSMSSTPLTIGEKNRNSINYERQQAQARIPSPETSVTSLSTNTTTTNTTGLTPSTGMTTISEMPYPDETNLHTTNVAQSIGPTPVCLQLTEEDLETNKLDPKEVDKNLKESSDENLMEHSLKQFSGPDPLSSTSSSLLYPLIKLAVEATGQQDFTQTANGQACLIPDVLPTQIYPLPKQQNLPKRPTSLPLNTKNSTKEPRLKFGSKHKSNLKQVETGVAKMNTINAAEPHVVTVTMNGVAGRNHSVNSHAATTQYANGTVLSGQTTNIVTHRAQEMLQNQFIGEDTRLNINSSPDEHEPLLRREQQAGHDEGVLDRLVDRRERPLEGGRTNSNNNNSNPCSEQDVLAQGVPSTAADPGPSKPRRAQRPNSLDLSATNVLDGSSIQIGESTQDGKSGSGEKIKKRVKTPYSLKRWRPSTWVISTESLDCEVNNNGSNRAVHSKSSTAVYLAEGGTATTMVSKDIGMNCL

panel of 442 kinases [3] = target: T3, panel of 442 kinases (Homo sapiens, UniProt Q14164); conditions: kinase IKK-epsilon; for remaining activity at 1 µM: read-out: % of control at 1 µM
T3 construct: purchased Ambit Biosciences (scanMAXX KINOMEscan)
T3 sequence (Q14164 1-716): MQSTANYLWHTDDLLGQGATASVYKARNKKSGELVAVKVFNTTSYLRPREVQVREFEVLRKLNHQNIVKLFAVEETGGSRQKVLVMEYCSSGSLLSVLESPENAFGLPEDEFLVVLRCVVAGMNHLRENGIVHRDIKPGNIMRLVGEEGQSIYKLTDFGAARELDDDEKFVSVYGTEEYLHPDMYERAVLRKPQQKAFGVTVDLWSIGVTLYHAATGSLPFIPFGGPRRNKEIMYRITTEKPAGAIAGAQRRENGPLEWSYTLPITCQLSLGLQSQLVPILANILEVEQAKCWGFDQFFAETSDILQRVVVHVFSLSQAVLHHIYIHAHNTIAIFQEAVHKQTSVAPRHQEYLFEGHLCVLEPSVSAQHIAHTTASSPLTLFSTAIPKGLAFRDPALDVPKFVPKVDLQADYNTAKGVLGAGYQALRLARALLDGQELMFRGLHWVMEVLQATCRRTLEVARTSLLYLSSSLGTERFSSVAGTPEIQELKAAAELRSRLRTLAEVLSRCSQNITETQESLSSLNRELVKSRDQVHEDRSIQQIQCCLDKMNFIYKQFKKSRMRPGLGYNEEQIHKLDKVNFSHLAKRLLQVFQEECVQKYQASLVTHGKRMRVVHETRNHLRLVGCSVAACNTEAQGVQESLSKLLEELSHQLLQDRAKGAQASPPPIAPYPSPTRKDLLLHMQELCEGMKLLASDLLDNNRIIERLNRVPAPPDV

[4] = 10 µM, read-out: % of control at 10 µM

Compound: Nc1cc(C(F)(F)F)c(-c2cc(N3CCOCC3)nc(N3CCOCC3)n2)cn1 [Buparlisib]
- remaining activity at 1 µM (panel of 442 kinases [1]): 100%
- remaining activity at 10 µM (panel of 442 kinases [1]; 10 µM, read-out: ULK1 (% of control at 10 µM)): 100%
- remaining activity at 1 µM (panel of 442 kinases [2]): 86%
- remaining activity at 10 µM (panel of 442 kinases [2]; [4]): 88%
- remaining activity at 1 µM (panel of 442 kinases [3]): 78%
- remaining activity at 10 µM (panel of 442 kinases [3]; [4]): 100%

Compound: Cn1c(=O)n(-c2ccc(C(C)(C)C#N)cc2)c2c3cc(-c4cnc5ccccc5c4)ccc3ncc21 [Dactolisib, 2-methyl-2-[4-(3-methyl-2-oxo-8-quinolin-3-yl-2,3-dihydroimidazo[4,5-c]quinolin-1-yl)-phenyl] propionitrile]
- remaining activity at 1 µM (panel of 442 kinases [1]): 88%
- remaining activity at 1 µM (panel of 442 kinases [2]): 83%
- remaining activity at 1 µM (panel of 442 kinases [3]): 100%

Compound: COc1ncc(-c2ccc3nccc(-c4ccnnc4)c3c2)cc1NS(=O)(=O)c1ccc(F)cc1F [Omipalisib]
- remaining activity at 1 µM (panel of 442 kinases [1]): 99%
- remaining activity at 1 µM (panel of 442 kinases [2]): 100%
- remaining activity at 1 µM (panel of 442 kinases [3]): 100%

Compound: FC(F)c1nc2ccccc2n1-c1nc(N2CCOCC2)nc(N2CCOCC2)n1 [ZSTK474, 2-(difluoromethyl)-1-[4,6-di(4-morpholinyl)-1,3,5-triazin-2-yl]-1H-benzimidazole]
- remaining activity at 1 µM (panel of 442 kinases [1]): 69%
- remaining activity at 1 µM (panel of 442 kinases [2]): 100%
- remaining activity at 1 µM (panel of 442 kinases [3]): 100%

Source: publication PMC5564600 (Oncotarget, 2017)
